Assay: Thermodynamic solubility of regorafenib monohydrate in different solvents
Type: physicochemical
Settings: thermodynamic from solid
Source text: Regorafenib monohydrate has a limited solubility profile.

Measured: solubility

CNC(=O)c1cc(Oc2ccc(NC(=O)Nc3ccc(Cl)c(C(F)(F)F)c3)c(F)c2)ccn1 [regorafenib monohydrate, 4-{4-[({[4-chloro-3-(trifluoromethyl)phenyl]amino}carbonyl)amino]-3-fluorophenoxy}-N-methylpyridine-2-carboxamide]
< 100 µg/mL: aqueous with cosolvent or surfactant or cyclodextrin, solvent HPβ-Cyclodextrin/water (10:90) | oil or lipid, solvent Light liquid paraffin | solvent Water
